Source: patent EP4620962A1, “PEPTIDE HAVING ACTIVITIES TO PROMOTE HAIR GROWTH AND AMELIORATE DAMAGED HAIR, AND USE THEREOF” (Caregen Co., Ltd., priority 2022, dated 2025)

Columns and labels:
[1] = test system: DKK-1 (Dickkopf-1); assay: DKK-1 expression (Western blot) in DHT-treated hair follicle dermal papilla cells; format: cell-based, human; conditions: dihydrotestosterone (DHT) added; 5 µM, or 50 µM; FIGS. 9 and 10
[2] = test system: Ha3-II, Keratin 5, Keratin 14, and Keratin 19 in human hair outer root sheath cells (HHORSCs); assay: RT-PCR of activators of outer root sheath cells; format: cell-based; conditions: RNA level; 5 µM, or 50 µM, 24 hours; FIGS. 11 and 12
Method: In this experimental example, effects of a peptide according to an embodiment on expression of type I cuticular Ha3-II (Ha3-II), Keratin 5, Keratin 14, and Keratin 19, which are cytokine related to activation of human hair outer root sheath cells (HHORSCs), were examined. Specifically, human hair outer root sheath cells were seeded on a 6-well plate at a density of 4×10^5 cell/well, followed by incubation for 24 hours in a mesenchymal stem cell complete media. Subsequently, the culture medium was replaced with a serum free mesenchymal stem cell complete medium, followed by incubation for 24 hours. Thereafter, a peptide according to an embodiment was aliquoted thereinto at a concentration of […], 5 µM, or 50 µM, followed by incubation for 24 hours at 37 °C. Then, gene expression was examined in the RNA level in the same manner as in Experimental Example 2-3 by using primers of Table 3 below. Meanwhile, a untreated group was used as a control, and a group treated with 50 nM EGF was used as a positive control.

[3] = test system: ERF and AKT; assay: Western blot of proliferation-related factors (phospho-AKT, phospho-ERK) in hair follicle dermal papilla cells; format: cell-based, human; conditions: 5 µM, or 50 µM, 24 hours, FIGS. 3 and 4
Method: In this experimental example, effects of a peptide according to an embodiment on activation of factors related to proliferation of human hair follicle dermal papilla cells were examined. Specifically, human hair follicle dermal papilla cells were seeded on a 6-well plate at a density of 4×10^5 cells/well, followed by incubation in a mesenchymal stem cell complete medium for 24 hours. Thereafter, a peptide according to an embodiment was aliquoted thereinto at a concentration of […], 5 µM, or 50 µM, followed by incubation for 24 hours at 37 °C. Then, the culture was washed with PBS, and 100 µL of a lysis buffer to prepare a cell lysate. Subsequently, bicinchoninic acid (BCA) was quantified to prepare an equal amount of a protein sample, followed by electrophoresis using a 10 % SDS-PAGE gel. Thereafter, proteins separated by the SDS-PAGE were transferred to a PVDF membrane, and the reaction was blocked using a 5 % skim milk at room temperature for 30 minutes. Then, phospho-AKT and phospho-ERK (cell signaling, USA) antibodies were diluted in a 3 % BSA at 1:1000 and reacted with the blocked PVDF membrane at 4 °C for 16 hours. Subsequently, the reactants were washed with 0.1 % PBS-T (0.1 % Tween-20 in PBS) three times each for 15 minutes and reacted for 1 hour with a secondary antibody diluted with 5 % skim milk at 1:2000. […]

[4] = test system: HOXC13, MSX2, and FOXN1 in human hair germinal matrix cells (HHGMCs); assay: RT-PCR of activators of germinal matrix cells; format: cell-based; conditions: RNA level; 5 µM, or 50 µM, 24 hours; FIGS. 13 and 14
Method: In this experimental example, effects of a peptide according to an embodiment on expression of Homeobox protein Hox-C13 (HOXC13), Msh homeobox 2 (MSX2), and Forkhead box protein N1 (FOXN1), which are transcription factors related to activation of human hair germinal matrix cells ([…]), were examined. Specifically, human hair germinal matrix cells were seeded on a 6-well plate at a density of 4×10^5 cell/well, followed by incubation for 24 hours in a mesenchymal stem cell complete medium. Subsequently, the culture medium was replaced with a serum free mesenchymal stem cell complete medium, followed by incubation for 24 hours. Thereafter, a peptide according to an embodiment was aliquoted thereinto at a concentration of […], 5 μM, or 50 μM, followed by incubation for 24 hours at 37 °C. Then, gene expression was examined in the RNA level in the same manner as in Experimental Example 2-3 by using primers of Table 4 below. Meanwhile, a untreated group was used as a control, and a group treated with 50 nM EGF was used as a positive control.

[5] = test system: human hair follicle dermal papilla cells (HFDPCs); assay: Proliferation of hair follicle dermal papilla cells (MTT); format: cell-based; conditions: 5 µM, or 50 µM, 72 hours, absorbance at 540 nm, FIGS. 1 and 2
Method: In this experimental example, effects of a peptide according to an embodiment on proliferation of human hair follicle dermal papilla cells were examined by evaluating a change in viability of the human hair follicle dermal papilla cells (HFDPCs). Specifically, human hair follicle dermal papilla cells were seeded on a 96-well plate at a density of 4×10^3 cells/well, followed by incubation in a mesenchymal stem cell complete medium for 24 hours. Subsequently, the culture medium was replaced with a serum free mesenchymal stem cell complete medium, followed by incubation for 24 hours. Thereafter, a peptide according to an embodiment was aliquoted thereinto at a concentration of […], 5 µM, or 50 µM, followed by incubation for 72 hours at 37 °C. Then, the culture was washed with PBS, and 10 µL of a 5 mg/ml MTT solution was aliquoted into each well. After incubating the culture in a CO2 incubator for 4 hours, the culture medium was removed, and 100 µL of dimethyl sulfoxide (DMSO) was added thereto, followed by stirring for 10 minutes. Thereafter, absorbance was measured at a wavelength of 540 nm by using a spectrophotometer. Meanwhile, a untreated group was used as a control, and a group treated with 1 µM EGF was used as a positive control.

[6] = test system: beta-catenin; assay: Nuclear beta-catenin Western blot in hair follicle dermal papilla cells; format: cell-based, human; conditions: nuclear proteins, HDAC1 as nuclear marker, FIGS. 5 and 6
Method: In this experimental example, effects of a peptide according to an embodiment on proliferation mechanism of human hair follicle dermal papilla cells were examined. Specifically, human hair follicle dermal papilla cells were incubated in the same manner as in Experimental Example 2-2, and treated with a peptide according to an embodiment. Then, nuclear proteins were isolated from the culture by using a nuclear protein extraction kit (Thermo scientific, USA). Subsequently, expression levels of proteins were examined in the same manner as in Experimental Example 2-2 by using beta-catenin (cell signaling, USA) and HDAC1 (santa cruz, USA) antibodies. Meanwhile, a untreated group was used as a control, and a group treated with 10 ng/mL recombinant human Wnt-3a protein (rhWnt-3a, R&D systems (USA, MN)) was used as a positive control.

[7] = test system: LEF-1, c-Myc, and cyclin D1; assay: RT-PCR of beta-catenin downstream target genes in hair follicle dermal papilla cells; format: cell-based, human; conditions: RNA level, FIG. 7 (Peptide-1: c-Myc, cyclin D1), FIG. 8 (Peptide-2: LEF-1, c-Myc, cyclin D1)
Method: In addition, a change in expression levels of lymphoid enhancer-binding factor-1 (LEF-1), c-Myc, and cyclin D1, which are downstream target genes of activating mechanism of beta-catenin, was examined. To this end, human hair follicle dermal papilla cells were incubated in the same manner in Experimental Example 2-2 and treated with a peptide according to an embodiment. Thereafter, the culture was washed with PBS and treated with 300 µL of easy blue (intron, Korea) to extract RNAs. Then, the extract RNAs were quantified by Nano drop, and cDNA was synthesized by using the RNAs as a template and using a cDNA synthesis kit (enzynomics, Korea). Then, polymerase chain reaction (PCR) was carried out using primers of Table 2 below and a PCR premix (enzynomics, Korea), followed by electrophoresis using a 1.5 % agarose gel, and gene expression was examined in the RNA level by a Bio-Rad gel image system.

For “Arg (R)-Cys (C)-Cys (C)-Gly (G) [Peptide-1]”, the “expression of DKK-1” value [1] was “inhibited”, the “expression of Ha3-II, Keratin 14, and Keratin 19” value [2] was “increased” and the “phosphorylation of ERF and AKT” value [3] was “induced”. For the same substance, the “expression of HOXC13, MSX2, and FOXN1” value [4] was “increased”, the “proliferation of dermal papilla cells” value [5] was “promoted” and the “migration of beta-catenin from cytoplasm to a nucleus” value [6] was “confirmed”. The “expression of LEF-1, c-Myc, and/or cyclin D1” value [7] was “increased”.
